Source: patent US11661426B2, “Imidazole-containing inhibitors of ALK2 kinase” (BioCryst Pharmaceuticals, Inc., priority 2017, dated 2023)

Molecular target: ALK2 (Homo sapiens (Human), UniProt Q04771)
Test: ALK2 inhibition, LanthaScreen Eu Kinase Binding Assay (ThermoFisher Scientific / Life Technologies)
Conditions: read-out: Measured Ki (IC50) Value for Compounds: IC50
Procedure: Biochemical assays to measure the inhibitory effects of the compounds were performed by ThermoFisher Scientific (Life Technologies). ALK2 inhibition was tested using LanthaScreen™ Eu Kinase Binding Assay screening protocol.

Chain of ALK2 (Q04771 21-509): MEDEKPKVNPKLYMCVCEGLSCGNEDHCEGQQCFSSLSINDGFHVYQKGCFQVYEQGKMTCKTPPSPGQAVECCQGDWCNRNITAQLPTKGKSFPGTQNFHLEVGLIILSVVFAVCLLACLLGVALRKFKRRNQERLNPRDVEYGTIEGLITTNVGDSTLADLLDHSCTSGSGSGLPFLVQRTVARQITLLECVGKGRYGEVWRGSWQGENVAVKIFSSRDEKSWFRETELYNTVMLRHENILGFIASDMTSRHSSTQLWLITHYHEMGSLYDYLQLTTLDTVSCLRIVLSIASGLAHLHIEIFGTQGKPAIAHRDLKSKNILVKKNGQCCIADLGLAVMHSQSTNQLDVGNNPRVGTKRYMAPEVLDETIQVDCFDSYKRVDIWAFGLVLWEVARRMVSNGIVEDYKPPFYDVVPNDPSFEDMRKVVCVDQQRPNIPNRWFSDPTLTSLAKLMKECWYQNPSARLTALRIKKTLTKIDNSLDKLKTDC

Row | Compound | IC50
1 | COc1cc(-n2cnc(Nc3nc4c(c(N5CCC[C@H]5CO)n3)CCC4)c2)cc(OC)c1OC [Compound 271c, (S)-(1-(2-((1-(3,4,5-trimethoxyphenyl)-1H-imidazol-4-yl)amino)-6,7-dihydro-5H-cyclopenta[d]pyrimidin-4-yl)pyrrolidin-2-yl)methanol] | < 100 nM
2 | COc1cc(-n2cnc(Nc3nc(N4CCC[C@H]4CO)c4ccc(C(F)(F)F)cc4n3)c2)cc(OC)c1OC [Compound 286b, (S)-(1-(7-(trifluoromethyl)-2-((1-(3,4,5-trimethoxyphenyl)-1H-imidazol-4-yl)amino)quinazolin-4-yl)pyrrolidin-2-yl)methanol] | < 100 nM

Now from value to compound:

Row | IC50 | Compound
3 | < 100 nM | COc1cc(-n2cnc(Nc3nc(N4CCC[C@H]4CO)nc4c3COCC4)c2)cc(OC)c1OC [Compound 342c, (S)-(1-(4-((1-(3,4,5-trimethoxyphenyl)-1H-imidazol-4-yl)amino)-7,8-dihydro-5H-pyrano[4,3-d]pyrimidin-2-yl)pyrrolidin-2-yl)methanol]
4 | < 100 nM | COc1cc(-n2cnc(Nc3nc(N4CCC[C@@H]4C(N)=O)nc4c3COC4)c2)cc(OC)c1OC [Compound 312a, (R)-1-(4-((1-(3,4,5-trimethoxyphenyl)-1H-imidazol-4-yl)amino)-5,7-dihydrofuro[3,4-d]pyrimidin-2-yl)pyrrolidine-2-carboxamide]
5 | < 100 nM | COc1cc(-n2cnc(Nc3nc(N4CCC[C@H]4CO)nc4c3CCN(Cc3ccccc3)C4)c2)cc(OC)c1OC [Compound 153c, (S)-(1-(7-benzyl-4-((1-(3,4,5-trimethoxyphenyl)-1H-imidazol-4-yl)amino)-5,6,7,8-tetrahydropyrido[3,4-d]pyrimidin-2-yl)pyrrolidin-2-yl)methanol]
